According to patent US11225469B2, “Inhibitors of phosphoglycerate dehydrogenase (PHGDH) and uses thereof” (Whitehead Institute for Biomedical Research, priority 2015, dated 2022):

Key:
PHGDH [1] = biological target: T1, PHGDH (Homo sapiens (Human), UniProt O43175); experiment: PHGDH inhibition, coupled assay with PSAT1/PSPH and diaphorase/resazurin readout; type: biochemical; conditions: Table E9; mixture with PSAT1, PSPH; diaphorase/resazurin reporter
[2] = test system: MDA-MB-231 cells over-expressing PHGDH; experiment: Intracellular serine in MDA-MB-231 cells expressing PHGDH, medium lacking serine and glycine (LC-MS); type: cell-based, human; conditions: media lacking serine and glycine
Procedure: To examine target engagement of PHGDH inhibitors in cells, MDA-MB-231 cells that lack detectable expression of PHGDH and MDA-MB-231 cells that stably express full-length human PHGDH (MDA-MB-231-PHGDH) were treated with PHGDH inhibitors in RPMI lacking serine and glycine. A MDA-MB-231 cell line was constructed which expresses PHGDH for comparison against the MDA-MB-231 empty vector line. MDA-MB-231 breast cancer cells were infected with PHGDH-expressing retrovirus.
MDA-MB-231 cells are incapable of synthesizing serine, but the addition of PHGDH permits these cells to synthesize serine. […] Concentrations of serine were determined by comparison with signals of internal standards and calibration curves. PHGDH inhibition reduces steady-state levels of intracellular serine in MDA-MB-231 cells over-expressing PHGDH. Studies were also performed in MDA-MB-468 cells, which over-express PHGDH and are PHGDH-dependent.
Cells were evenly seeded at 400,000 cells per well of a 6-well plate and allowed to attach for 24 hours. Prior to all labeling experiments, cells were pretreated with 10 μM compound or an equivalent volume of DMSO in RPMI for 1 hour. For steady-state metabolite concentrations, cells were washed with PBS prior to pretreatment and treatment in RPMI lacking serine and glycine. For labeling experiments, U-^13C-glucose, U-^13C-serine, or U-^13C-glycine replaced the corresponding unlabeled RPMI component. Cells were washed in 4° C. […] Triplicate identically seeded wells were trypsinzed and analyzed with a Multisizer Coulter Counter (Beckman Coulter) to obtain cell counts and total cell volumes for normalization.
Dried metabolites were resuspended in 100 μL water, centrifuged at 13,000×g at 4° C. for 10 minutes, and the supernatant recovered for analysis. […] Metabolites were monitored using a polarity-switching full-scan method and identified by accurate mass (±20 ppm) and retention time within 15 seconds of a previously run pure standard. […]

ALDH = ALDH (Homo sapiens (Human), UniProt P00352); experiment: Counter-screen against ALDH; type: biochemical; conditions: Table E11
ALDH, sequence (P00352 whole entry): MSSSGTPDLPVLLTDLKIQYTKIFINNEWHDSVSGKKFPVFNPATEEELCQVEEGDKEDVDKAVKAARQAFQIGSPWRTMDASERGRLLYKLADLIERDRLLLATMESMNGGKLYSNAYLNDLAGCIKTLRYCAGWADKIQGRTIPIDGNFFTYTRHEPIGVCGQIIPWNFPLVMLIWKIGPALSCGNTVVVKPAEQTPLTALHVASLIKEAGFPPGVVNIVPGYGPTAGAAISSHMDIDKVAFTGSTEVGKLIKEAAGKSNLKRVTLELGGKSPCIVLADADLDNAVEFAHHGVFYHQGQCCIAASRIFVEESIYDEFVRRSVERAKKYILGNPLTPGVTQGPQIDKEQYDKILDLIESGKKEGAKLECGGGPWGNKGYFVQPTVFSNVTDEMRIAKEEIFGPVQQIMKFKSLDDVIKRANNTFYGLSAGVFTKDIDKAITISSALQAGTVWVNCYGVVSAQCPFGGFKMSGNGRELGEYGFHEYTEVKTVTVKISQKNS

GAPDH = GAPDH (Homo sapiens (Human), UniProt P04406); experiment: Counter-screen against GAPDH; type: biochemical; conditions: Table E11
GAPDH, sequence (P04406 whole entry): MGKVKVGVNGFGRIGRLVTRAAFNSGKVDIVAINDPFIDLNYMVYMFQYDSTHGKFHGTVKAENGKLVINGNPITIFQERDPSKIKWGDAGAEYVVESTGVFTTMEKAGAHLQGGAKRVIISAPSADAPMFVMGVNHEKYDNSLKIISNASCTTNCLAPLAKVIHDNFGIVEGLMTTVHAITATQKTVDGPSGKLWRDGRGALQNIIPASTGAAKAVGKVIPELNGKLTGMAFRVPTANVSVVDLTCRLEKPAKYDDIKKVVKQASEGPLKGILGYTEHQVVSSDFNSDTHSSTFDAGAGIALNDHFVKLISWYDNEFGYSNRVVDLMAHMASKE
Procedure: GAPDH substrate buffer contained 210 mM Tris pH 7.4, 2.5 mM NaH2PO4 pH 7.4, 2 mM DL-Glyceraldehyde 3-phosphate, 1.75 mM MgCl2, 0.01 mM NAD+, 0.11 mM resazurin, 0.2 mg/mL BSA, and 0.01% Tween-20. GAPDH enzyme buffer contained 50 mM Tris pH 7.4, 100 mM NaCl, 0.02 mM TCEP, 0.01 mM EDTA, 0.1 mg/mL BSA, 0.42 mg/mL diaphorase, and 2.5 nM GAPDH. The GAPDH, GPD1, and GPD1L assays were run in 384-well plates using the same protocol and readout as the PHGDH assay. […] GPD1 enzyme buffer contained 50 mM Tris pH 7.4, 100 mM NaCl, 0.08 mM TCEP, 0.4 mg/mL BSA, 0.03 μM EDTA, and 0.8 nM GPD1. 70 μL of substrate buffer were mixed with 10 μL enzyme buffer. GPD1L substrate buffer contained 200 mM Tris pH 7.4, 0.05 mM sn-G3-P, 2 mM MgCl2, 0.04 mM NAD+, 0.11 mM resazurin, 0.1 mg/mL BSA, and 0.02% Tween-20. GPD1L enzyme buffer contained 50 mM Tris pH 7.4, 100 mM NaCl, 0.02 mM TCEP, 0.42 mg/mL diaphorase, 0.1 mg/mL BSA, 0.008 μM EDTA, and 16 nM GPD1L. 40 μL of substrate buffer were mixed with 40 μL of enzyme buffer.
The GAPDH and GPD1L assays were read using the same protocol as the PHGDH assay. The GPD1 assay was read using loss of NADH fluorescence (λex=340 nm and λem=460 nm).

HSD17B4 = HSD17B4 (Homo sapiens (Human), UniProt P51659); experiment: Counter-screen against HSD17B4; type: biochemical; conditions: Table E11
HSD17B4, sequence (P51659 whole entry, species assumed): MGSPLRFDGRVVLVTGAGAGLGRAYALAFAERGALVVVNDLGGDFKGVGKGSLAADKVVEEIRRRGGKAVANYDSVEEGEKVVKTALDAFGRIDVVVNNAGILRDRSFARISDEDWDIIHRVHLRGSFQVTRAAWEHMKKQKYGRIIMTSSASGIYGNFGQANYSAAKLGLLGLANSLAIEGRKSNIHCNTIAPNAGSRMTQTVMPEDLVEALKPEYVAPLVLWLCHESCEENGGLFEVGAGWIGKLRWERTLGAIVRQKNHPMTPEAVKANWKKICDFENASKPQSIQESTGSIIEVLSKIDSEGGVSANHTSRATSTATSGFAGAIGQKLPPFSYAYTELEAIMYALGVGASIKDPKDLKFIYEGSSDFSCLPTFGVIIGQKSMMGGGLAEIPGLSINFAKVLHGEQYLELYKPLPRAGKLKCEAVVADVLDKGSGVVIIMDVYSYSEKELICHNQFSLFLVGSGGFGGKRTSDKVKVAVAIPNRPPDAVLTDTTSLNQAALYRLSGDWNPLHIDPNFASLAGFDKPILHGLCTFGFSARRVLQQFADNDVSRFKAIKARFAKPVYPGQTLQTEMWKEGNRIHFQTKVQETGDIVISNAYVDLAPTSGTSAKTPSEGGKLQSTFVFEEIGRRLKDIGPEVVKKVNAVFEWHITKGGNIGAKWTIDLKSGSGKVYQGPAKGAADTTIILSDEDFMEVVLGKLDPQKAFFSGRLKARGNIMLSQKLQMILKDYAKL

[3] = test system: panel of other dehydrogenases; experiment: Panel of other dehydrogenases; type: biochemical
panel of 168 GPCRs = experiment: Cross-reactivity in a panel of 168 GPCRs
PHGDH [4] = biological target: T1, PHGDH; experiment: Differential scanning fluorimetry; type: binding
Procedure: Destabilization has been previously observed in the specific binding of small molecules to their protein targets (see, e.g., Hamiaux, C. et al. “DAD2 is an α/β hydrolase likely to be involved in the perception of the plant branching hormone, strigolactone.” Curr Biol 22, 2032-2036 (2012)).
Differential scanning fluorimetry assays were carried out in 20 mM TEA pH 8, 100 mM NaCl, 1× SYPRO Orange (Sigma), 2 μM PHGDH in a volume of 10 μL. Unfolding was monitored using a LightCycler 480 II real-time PCR instrument (λex=465 nm and λem=580 nm) over a linear 20 to 85° C. gradient. Plots of the first derivative of fluorescence vs. temperature were generated in LightCycler software.

MDA-MB-468 cells = experiment: Metabolite profiling and 13C labeling in MDA-MB-468 cells (LC-MS); type: cell-based, human; conditions: washout
Procedure: To track the effects of PHGDH inhibition on glycolysis and serine biosynthesis, MDA-MB-231 and MDA-MB-468 cells were fed universally labeled carbon-13 glucose and the intracellular ratio of labeled to unlabeled glucose was measured at the times indicated in FIG. 3E.
Cells were evenly seeded at 400,000 cells per well of a 6-well plate and allowed to attach for 24 hours. Prior to all labeling experiments, cells were pretreated with 10 μM compound or an equivalent volume of DMSO in RPMI for 1 hour. For steady-state metabolite concentrations, cells were washed with PBS prior to pretreatment and treatment in RPMI lacking serine and glycine. For labeling experiments, U-^13C-glucose, U-^13C-serine, or U-^13C-glycine replaced the corresponding unlabeled RPMI component. Cells were washed in 4° C. 0.9% (w/v) NaCl in LCMS-grade water and extracted in 1 mL/well of 80:20 (v/v) methanol:water with 0.01 ng/mL Val-d8 and Phe-d8 as internal extraction standards. The extraction solvent was dried under nitrogen gas and metabolite samples were stored at −80° C. until analysis. Triplicate identically seeded wells were trypsinzed and analyzed with a Multisizer Coulter Counter (Beckman Coulter) to obtain cell counts and total cell volumes for normalization.
Dried metabolites were resuspended in 100 μL water, centrifuged at 13,000×g at 4° C. for 10 minutes, and the supernatant recovered for analysis. Chromatographic separation was achieved by injecting 1 pi of sample on a SeQuant ZIC-pHILIC Polymeric column (2.1 3 150 mm […], EMD Millipore). Flow rate was set to 0.1 ml per minute, column compartment was set to 25° C., and autosampler sample tray was set to 4° C. Mobile Phase A consisted of 20 mM ammonium carbonate, 0.1% ammonium hydroxide. Mobile Phase B was 100% acetonitrile. The mobile phase gradient (% B) was as follows: 0 min 80%, 30 min 20%, 31 min 80%, 42 min 80%. All mobile phase was introduced into the ionization source set with the following parameters: sheath gas=40, auxiliary gas=15, sweep gas=5, spray voltage=−3.1 kV or +3.0 kV, capillary temperature=275° C., S-lens RF level=40, probe temperature=350° C. Metabolites were monitored using a polarity-switching full-scan method and identified by accurate mass (±20 ppm) and retention time within 15 seconds of a previously run pure standard. Metabolite peaks were identified and integrated with Xcalibur v.2.2 software (Thermo Fisher Scientific) and normalized to internal standard and to total cell volume, m/z ratios for stable isotopically labeled metabolites were obtained from IsoMETLIN (See, e.g., Cho, K. et al. “isoMETLIN: a database for isotope-based metabolomics.” Anal Chem 86, 9358-9361 (2014)) and corrected for natural abundance.

T1 sequence (O43175 whole entry): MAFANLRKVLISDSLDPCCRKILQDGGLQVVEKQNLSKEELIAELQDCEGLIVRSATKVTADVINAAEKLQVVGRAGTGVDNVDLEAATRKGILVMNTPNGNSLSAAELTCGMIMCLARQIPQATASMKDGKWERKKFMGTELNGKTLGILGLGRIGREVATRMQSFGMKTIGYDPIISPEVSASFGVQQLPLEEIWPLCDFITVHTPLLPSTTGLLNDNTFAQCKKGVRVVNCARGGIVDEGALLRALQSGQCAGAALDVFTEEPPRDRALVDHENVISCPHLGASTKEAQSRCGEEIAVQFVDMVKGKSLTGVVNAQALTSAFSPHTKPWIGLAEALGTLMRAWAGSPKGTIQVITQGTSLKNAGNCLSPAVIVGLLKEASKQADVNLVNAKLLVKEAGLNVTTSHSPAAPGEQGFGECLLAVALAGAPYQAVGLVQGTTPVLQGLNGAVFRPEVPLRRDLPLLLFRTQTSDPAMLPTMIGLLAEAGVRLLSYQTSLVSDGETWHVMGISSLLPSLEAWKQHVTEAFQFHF

Compound	IC50 (PHGDH [1]) [µM]	also measured
Cc1cc(C)nc(NC(=S)N2CCN(c3ccncc3)CC2)c1 [Compound 71, N-(4,6-dimethylpyridin-2-yl)-4-(pyridin-4-yl)piperazine-1-carbothioamide]	≥ 20	intracellular serine levels [2]: not reduced
Cc1cc(C)nc(NC(=S)N2CCN(c3ccc(C(F)(F)F)cn3)CC2)c1 [Compound 72, N-(4,6-dimethylpyridin-2-yl)-4-(5-(trifluoromethyl)pyridin-2-yl)piperazine-1-carbothioamide]		IC50 (ALDH): 10 to 50 µM; IC50 (GAPDH): ≥ 100 µM; IC50 (HSD17B4): ≥ 100 µM; activity against a panel of other dehydrogenases [3]: inactive; cross-reactivity, modulation of activity (panel of 168 GPCRs): < 30%; Tm of PHGDH (PHGDH [4]): decreased; reversibility of inhibition of serine synthesis in cells (MDA-MB-468 cells): reversible; intracellular serine levels [2]: decreased
FC(F)(F)c1cccc(N2CCN(C(=S)Nc3nc[nH]n3)CC2)c1 [Compound 233]	5 to 10	
Cn1c(NC(=S)N2CCN(c3cccc(C(F)(F)F)c3)CC2)nc2ccccc21 [Compound 229]	5 to 10	
COc1cc(OC)cc(N2CCN(C(=S)Nc3cc(C)cc(C)n3)CC2)c1 [Compound 216]	10 to 20	
Cc1ccnc(NC(=S)NC2CCCN(c3cccc(C(F)(F)F)c3)C2)c1 (stereo not shown) [Compound 54]	5 to 10	
Cc1cc(C)nc(NC(=S)N2CCN(c3ccccc3C#N)CC2)c1 [Compound 89]	10 to 20	
COc1ccccc1N[S+](=O)([O-])c1cc(NC(=O)c2ccc3ccccc3n2)ccc1N1CCCC1 [Compound 249]	≥ 20	
Cc1cc(C)nc(NC(=S)N2CCN(Cc3ccc(Cl)cc3)CC2)c1 [Compound 280]	10 to 20	
Cc1cc(C)nc(NC(=S)N2CCN(CC3CCCCC3)CC2)c1 [Compound 255]	< 5	
Cc1cc(C)nc(NC(=S)N2CCN(c3ccc(Cl)cc3[N+](=O)[O-])CC2)c1 [Compound 218]	5 to 10	
Cc1cc(C)nc(NC(=S)N2CCN(c3ccc([N+](=O)[O-])c4cccnc34)CC2)c1 [Compound 123]	≥ 20	
COc1cccc(NC(=S)N2CCN(c3cccc(C(F)(F)F)c3)CC2)n1 [Compound 38]	5 to 10	
COc1cc(NC(=S)N2CCN(c3cccc(C(F)(F)F)c3)CC2)nc2ccccc12 [Compound 130]	10 to 20	
Cc1cc(C)nc(NC(=S)N2CCN([S+](=O)([O-])c3cccc(C(F)(F)F)c3)CC2)c1 [Compound 100]	< 5	
Cc1cc(C)nc(NC(=S)N2CCC(CN3CCOCC3)CC2)c1 [Compound 270]	≥ 20	

Compound	IC50 (PHGDH [1]) [µM]	also measured
COC(=O)c1ccnc(NC(=S)N2CCN(c3cccc(C(F)(F)F)c3)CC2)c1 [Compound 28]	< 5	
Cc1cc(NC(=S)N2CCN(c3cccc(C(F)(F)F)c3)CC2)nc2ccccc12 [Compound 127]	≥ 20	
COc1ccnc(NC(=S)N2CCN(c3ccc(Cl)c(Cl)c3)CC2)c1 [Compound 182]	5 to 10	
Cc1cc(C)nc(NC(=S)N2CCC(NC(=O)c3ccc(C(F)(F)F)cc3)CC2)c1 [Compound 266]	< 5	
COc1ccc2nc(NC(=S)N3CCN(c4cccc(C(F)(F)F)c4)CC3)[nH]c2c1 [Compound 240]	≥ 20	
CC(Cc1ccccc1)C(=O)Nc1ccc(Cl)cc1C(=O)O (stereo not shown) [Compound 20]	≥ 20	
COc1cccc(NC(=S)N2CCN(c3ncc(C(F)(F)F)cc3Cl)CC2)n1 [Compound 195]	< 5	
FC(F)(F)c1cccc(N2CCN(C(=S)Nc3ccc4ccccc4n3)CC2)c1 [Compound 34]	10 to 20	
Cc1cc(C)nc(NC(=S)N2CCN(c3ccc4ccccc4n3)CC2)c1 [Compound 85]	10 to 20	
Cc1cc(C)nc(NC(=S)N2CCN(Cc3ccc(C(F)(F)F)c(Cl)c3)CC2)c1 [Compound 300]	5 to 10	
Cc1cc(C)nc(NC(=S)N2CCN(c3ccc(Cl)cc3Cl)CC2)c1 [Compound 68]	5 to 10	
Cc1ccnc(NC(=S)N2CCc3cc(C(F)(F)F)ccc3C2)c1 [Compound 61]	10 to 20	
Cc1ccnc(NC(=S)N2CCN(c3cccc(C(F)(F)F)c3)CC2)n1 [Compound 126]	10 to 20	
Cc1cc(C)nc(NC(=S)N2CCN(Cc3ccccc3C(F)(F)F)CC2)c1 [Compound 278]	10 to 20	
Cc1ccnc(NC(=S)N2CCCC(Nc3cccc(C(F)(F)F)c3)C2)c1 (stereo not shown) [Compound 58]	5 to 10	
Cc1cc(C)nc(NC(=S)N2CCN(c3nc(C)cnc3C)CC2)c1 [Compound 104]	≥ 20	
